# Measurements: patent US7655665B2, “Nitromethylene derivatives and their use” (East China University of Science and Technology, priority 2004, dated 2010)
# Assays:
# [1] = test system: Nilaparvata lugens; assay: Insecticidal activity against Nilaparvata lugens (planthopper) by spraying; assay type: in vivo; conditions: for mortality (%) (500 ppm) Nilaparvata lugens: spraying 2 ml, counted after 24 hours; for mortality at 500 ppm: Nilaparvata lugens, 24 h, read-out: mortality (%) (500 ppm) Nilaparvata lugens
# Protocol: (§1) Test on the insecticidal activity of Compound Nos. 1-227
# Planthopper, which belongs to Homoptera and has a piercing-sucking mouthpart, is a common insect for agricultural plant. Nilaparvata lugens was tested by the way of spraying.
# Test method: the test compound was exactly formulated into a solution having a certain concentration and clean water was used as a blank control. Each process was repeated for 3 tumblers (3 times). 2 ml of solution was sprayed uniformly to each tumbler by a mini manual sprayer. 10 Nilaparvata lugens were introduced to every sink 6 hours before spraying. Three series of experiments were conducted. The number of killed Nilaparvata lugens was counted after 24 hours to calculate the mortality.
# [2] = test system: Aphis craccivoral; assay: Insecticidal activity against Aphis craccivoral by immersing (dipping aphids on bean sprout); assay type: in vivo; conditions: for mortality (%) (500 ppm) Aphis: immersing (dipped 5 seconds), counted after 24 hours, 23° C.; for mortality at 500 ppm: Aphis, 24 h, read-out: mortality (%) (500 ppm) Aphis
# Protocol: as §1
# Aphis, which belongs to Homoptera and has a piercing-sucking mouthpart, is a common insect for agricultural plant. Aphis craccivoral was tested by the way of immersing.
# Test method: exactly weighed various samples were independently added to N,N-dimethylformamide to form a 10 g/L stock solution. The mixture was diluted with 0.2 mL/L aqueous Triton X-100 solution to a concentration of 500 ug/mL. After stably sucking on bean sprout, the adult aphis without wings together with bean sprout was dipped into 500 ug/mL dilution, taken out after 5 seconds, and the excess dilution was sucked out with bibulous paper and the adult aphis without wings was incubated in clean vessel at a constant temperature of 23° C. Each concentration was repeated for 3 times and the control group contained 0.2 mL/L aqueous Triton X-100 solution. The number of killed aphis was counted after 24 hours to calculate the mortality.
smiles,measurement,setting,value
CC(C)CCOC1CCC([N+](=O)[O-])=C2N(Cc3cnc(Cl)s3)CCN21 (racemic) [Compound 37],mortality (%) (500 ppm) Nilaparvata lugens,[1],64%
same,mortality (%) (500 ppm) Aphis,[2],56%
CC(C)(C)COC1CCC([N+](=O)[O-])=C2N(Cc3cnc(Cl)s3)CCN21 (racemic) [Compound 39],mortality (%) (500 ppm) Nilaparvata lugens,[1],35%
same,mortality (%) (500 ppm) Aphis,[2],24%
O=[N+]([O-])C1=C2N(Cc3cnc(Cl)s3)CCN2C(OC2CCCCC2)CC1 (racemic) [Compound 40],mortality (%) (500 ppm) Nilaparvata lugens,[1],67%
same,mortality (%) (500 ppm) Aphis,[2],45%
C=CCOC1CCC([N+](=O)[O-])=C2N(Cc3cnc(Cl)s3)CCN21 (racemic) [Compound 41],mortality (%) (500 ppm) Nilaparvata lugens,[1],100%
same,mortality (%) (500 ppm) Aphis,[2],89%
O=[N+]([O-])C1=C2N(Cc3ccc(Cl)nc3)CCN2C(O)CC1 (stereo not shown) [Compound 1],mortality at 500 ppm,[1],100%
same,mortality at 500 ppm,[2],96%
COC1CCC([N+](=O)[O-])=C2N(Cc3ccc(Cl)nc3)CCN21 (stereo not shown) [Compound 2],mortality at 500 ppm,[1],100%
same,mortality at 500 ppm,[2],100%
CCOC1CCC([N+](=O)[O-])=C2N(Cc3ccc(Cl)nc3)CCN21 (stereo not shown) [Compound 3],mortality at 500 ppm,[1],100%
same,mortality at 500 ppm,[2],100%
C#CCOC1CCC([N+](=O)[O-])=C2N(Cc3cnc(Cl)s3)CCN21 (stereo not shown) [Compound 42],mortality (%) (500 ppm) Nilaparvata lugens,[1],100%
same,mortality (%) (500 ppm) Aphis,[2],45%
COCCOC1CCC([N+](=O)[O-])=C2N(Cc3cnc(Cl)s3)CCN21 (stereo not shown) [Compound 43],mortality (%) (500 ppm) Nilaparvata lugens,[1],100%
same,mortality (%) (500 ppm) Aphis,[2],100%
CCOCCOC1CCC([N+](=O)[O-])=C2N(Cc3cnc(Cl)s3)CCN21 (stereo not shown) [Compound 44],mortality (%) (500 ppm) Nilaparvata lugens,[1],100%
same,mortality (%) (500 ppm) Aphis,[2],67%
O=[N+]([O-])C1=C2N(CC3CCOC3)CCN2C(O)CC1 (stereo not shown) [Compound 45],mortality (%) (500 ppm) Nilaparvata lugens,[1],89%
same,mortality (%) (500 ppm) Aphis,[2],56%
COC1CCC([N+](=O)[O-])=C2N(CC3CCOC3)CCN21 (stereo not shown) [Compound 46],mortality (%) (500 ppm) Nilaparvata lugens,[1],100%
same,mortality (%) (500 ppm) Aphis,[2],100%
CCOC1CCC([N+](=O)[O-])=C2N(CC3CCOC3)CCN21 (stereo not shown) [Compound 47],mortality (%) (500 ppm) Nilaparvata lugens,[1],100%
same,mortality (%) (500 ppm) Aphis,[2],45%
O=[N+]([O-])C1=C2N(CC3CCOC3)CCN2C(OCCCl)CC1 (stereo not shown) [Compound 48],mortality (%) (500 ppm) Nilaparvata lugens,[1],0%
same,mortality (%) (500 ppm) Aphis,[2],3%
O=[N+]([O-])C1=C2N(CC3CCOC3)CCN2C(OCC(F)(F)F)CC1 (stereo not shown) [Compound 49],mortality (%) (500 ppm) Nilaparvata lugens,[1],32%
same,mortality (%) (500 ppm) Aphis,[2],45%
CCCOC1CCC([N+](=O)[O-])=C2N(CC3CCOC3)CCN21 (stereo not shown) [Compound 50],mortality (%) (500 ppm) Nilaparvata lugens,[1],100%
same,mortality (%) (500 ppm) Aphis,[2],100%
CC(C)OC1CCC([N+](=O)[O-])=C2N(CC3CCOC3)CCN21 (stereo not shown) [Compound 51],mortality (%) (500 ppm) Nilaparvata lugens,[1],23%
same,mortality (%) (500 ppm) Aphis,[2],34%
CCCCOC1CCC([N+](=O)[O-])=C2N(CC3CCOC3)CCN21 (stereo not shown) [Compound 53],mortality (%) (500 ppm) Nilaparvata lugens,[1],12%
same,mortality (%) (500 ppm) Aphis,[2],9%
CC(C)COC1CCC([N+](=O)[O-])=C2N(CC3CCOC3)CCN21 (stereo not shown) [Compound 54],mortality (%) (500 ppm) Nilaparvata lugens,[1],34%
same,mortality (%) (500 ppm) Aphis,[2],23%
CCC(C)OC1CCC([N+](=O)[O-])=C2N(CC3CCOC3)CCN21 (stereo not shown) [Compound 55],mortality (%) (500 ppm) Nilaparvata lugens,[1],12%
same,mortality (%) (500 ppm) Aphis,[2],45%
CC(C)(C)OC1CCC([N+](=O)[O-])=C2N(CC3CCOC3)CCN21 (stereo not shown) [Compound 56],mortality (%) (500 ppm) Nilaparvata lugens,[1],100%
same,mortality (%) (500 ppm) Aphis,[2],100%
CC(C)(OC1CCC([N+](=O)[O-])=C2N(CC3CCOC3)CCN21)C(Cl)(Cl)Cl (stereo not shown) [Compound 57],mortality (%) (500 ppm) Nilaparvata lugens,[1],38%
same,mortality (%) (500 ppm) Aphis,[2],34%
CCCCCOC1CCC([N+](=O)[O-])=C2N(CC3CCOC3)CCN21 (stereo not shown) [Compound 58],mortality (%) (500 ppm) Nilaparvata lugens,[1],23%
same,mortality (%) (500 ppm) Aphis,[2],34%
CCC(C)OC1CCC([N+](=O)[O-])=C2N(CC3CCOC3)CCN21 (stereo not shown) [Compound 59],mortality (%) (500 ppm) Nilaparvata lugens,[1],3%
same,mortality (%) (500 ppm) Aphis,[2],2%
CC(C)CCOC1CCC([N+](=O)[O-])=C2N(CC3CCOC3)CCN21 (stereo not shown) [Compound 60],mortality (%) (500 ppm) Nilaparvata lugens,[1],5%
same,mortality (%) (500 ppm) Aphis,[2],3%
CCCC(C)OC1CCC([N+](=O)[O-])=C2N(CC3CCOC3)CCN21 (stereo not shown) [Compound 61],mortality (%) (500 ppm) Nilaparvata lugens,[1],89%
same,mortality (%) (500 ppm) Aphis,[2],56%
CC(C)(C)COC1CCC([N+](=O)[O-])=C2N(CC3CCOC3)CCN21 (stereo not shown) [Compound 62],mortality (%) (500 ppm) Nilaparvata lugens,[1],23%
same,mortality (%) (500 ppm) Aphis,[2],12%
O=[N+]([O-])C1=C2N(CC3CCOC3)CCN2C(OC2CCCCC2)CC1 (stereo not shown) [Compound 63],mortality (%) (500 ppm) Nilaparvata lugens,[1],6%
same,mortality (%) (500 ppm) Aphis,[2],2%
C=CCOC1CCC([N+](=O)[O-])=C2N(CC3CCOC3)CCN21 (stereo not shown) [Compound 64],mortality (%) (500 ppm) Nilaparvata lugens,[1],46%
same,mortality (%) (500 ppm) Aphis,[2],37%
C#CCOC1CCC([N+](=O)[O-])=C2N(CC3CCOC3)CCN21 (stereo not shown) [Compound 65],mortality (%) (500 ppm) Nilaparvata lugens,[1],34%
same,mortality (%) (500 ppm) Aphis,[2],47%
COCCOC1CCC([N+](=O)[O-])=C2N(CC3CCOC3)CCN21 (stereo not shown) [Compound 66],mortality (%) (500 ppm) Nilaparvata lugens,[1],100%
same,mortality (%) (500 ppm) Aphis,[2],100%
CCOCCOC1CCC([N+](=O)[O-])=C2N(CC3CCOC3)CCN21 (stereo not shown) [Compound 67],mortality (%) (500 ppm) Nilaparvata lugens,[1],100%
same,mortality (%) (500 ppm) Aphis,[2],100%
CC1CC(O)N2CCN(CC3CCOC3)C2=C1[N+](=O)[O-] (stereo not shown) [Compound 68],mortality (%) (500 ppm) Nilaparvata lugens,[1],7%
same,mortality (%) (500 ppm) Aphis,[2],2%
CC1CC(O)N2CCN(Cc3ccc(Cl)nc3)C2=C1[N+](=O)[O-] (stereo not shown) [Compound 69],mortality (%) (500 ppm) Nilaparvata lugens,[1],56%
same,mortality (%) (500 ppm) Aphis,[2],45%
CC1CC(O)N2CCN(Cc3cnc(Cl)s3)C2=C1[N+](=O)[O-] (stereo not shown) [Compound 70],mortality (%) (500 ppm) Nilaparvata lugens,[1],12%
same,mortality (%) (500 ppm) Aphis,[2],33%
O=[N+]([O-])C1=C2N(Cc3ccc(Cl)nc3)CCCN2C(O)CC1 (stereo not shown) [Compound 71],mortality (%) (500 ppm) Nilaparvata lugens,[1],0%
same,mortality (%) (500 ppm) Aphis,[2],6%
COC1CCC([N+](=O)[O-])=C2N(Cc3ccc(Cl)nc3)CCCN21 (stereo not shown) [Compound 72],mortality (%) (500 ppm) Nilaparvata lugens,[1],100%
same,mortality (%) (500 ppm) Aphis,[2],35%
CCOC1CCC([N+](=O)[O-])=C2N(Cc3ccc(Cl)nc3)CCCN21 (stereo not shown) [Compound 73],mortality (%) (500 ppm) Nilaparvata lugens,[1],56%
same,mortality (%) (500 ppm) Aphis,[2],34%
O=[N+]([O-])C1=C2N(Cc3ccc(Cl)nc3)CCCN2C(OCCCl)CC1 (stereo not shown) [Compound 74],mortality (%) (500 ppm) Nilaparvata lugens,[1],13%
same,mortality (%) (500 ppm) Aphis,[2],12%
O=[N+]([O-])C1=C2N(Cc3ccc(Cl)nc3)CCCN2C(OCC(F)(F)F)CC1 (stereo not shown) [Compound 75],mortality (%) (500 ppm) Nilaparvata lugens,[1],100%
same,mortality (%) (500 ppm) Aphis,[2],88%
CCCOC1CCC([N+](=O)[O-])=C2N(Cc3ccc(Cl)nc3)CCCN21 (stereo not shown) [Compound 76],mortality (%) (500 ppm) Nilaparvata lugens,[1],100%
same,mortality (%) (500 ppm) Aphis,[2],100%
CC(C)OC1CCC([N+](=O)[O-])=C2N(Cc3ccc(Cl)nc3)CCCN21 (stereo not shown) [Compound 77],mortality (%) (500 ppm) Nilaparvata lugens,[1],78%
same,mortality (%) (500 ppm) Aphis,[2],56%
O=[N+]([O-])C1=C2N(Cc3ccc(Cl)nc3)CCCN2C(OC(C(F)(F)F)C(F)(F)F)CC1 (stereo not shown) [Compound 78],mortality (%) (500 ppm) Nilaparvata lugens,[1],51%
same,mortality (%) (500 ppm) Aphis,[2],68%
CCCCOC1CCC([N+](=O)[O-])=C2N(Cc3ccc(Cl)nc3)CCCN21 (stereo not shown) [Compound 79],mortality (%) (500 ppm) Nilaparvata lugens,[1],61%
same,mortality (%) (500 ppm) Aphis,[2],52%
CC(C)COC1CCC([N+](=O)[O-])=C2N(Cc3ccc(Cl)nc3)CCCN21 (stereo not shown) [Compound 80],mortality (%) (500 ppm) Nilaparvata lugens,[1],34%
same,mortality (%) (500 ppm) Aphis,[2],23%
CCC(C)OC1CCC([N+](=O)[O-])=C2N(Cc3ccc(Cl)nc3)CCCN21 (stereo not shown) [Compound 81],mortality (%) (500 ppm) Nilaparvata lugens,[1],8%
same,mortality (%) (500 ppm) Aphis,[2],12%
CC(C)(C)OC1CCC([N+](=O)[O-])=C2N(Cc3ccc(Cl)nc3)CCCN21 (stereo not shown) [Compound 82],mortality (%) (500 ppm) Nilaparvata lugens,[1],34%
same,mortality (%) (500 ppm) Aphis,[2],12%
COCCOC1CCC([N+](=O)[O-])=C2N(Cc3ccc(Cl)nc3)CCCN21 (stereo not shown) [Compound 83],mortality (%) (500 ppm) Nilaparvata lugens,[1],26%
same,mortality (%) (500 ppm) Aphis,[2],38%
CCOCCOC1CCC([N+](=O)[O-])=C2N(Cc3ccc(Cl)nc3)CCCN21 (stereo not shown) [Compound 84],mortality (%) (500 ppm) Nilaparvata lugens,[1],39%
same,mortality (%) (500 ppm) Aphis,[2],26%
O=[N+]([O-])C1=C2N(Cc3cnc(Cl)s3)CCCN2C(O)CC1 (stereo not shown) [Compound 85],mortality (%) (500 ppm) Nilaparvata lugens,[1],23%
same,mortality (%) (500 ppm) Aphis,[2],12%
COC1CCC([N+](=O)[O-])=C2N(Cc3cnc(Cl)s3)CCCN21 (stereo not shown) [Compound 86],mortality (%) (500 ppm) Nilaparvata lugens,[1],100%
same,mortality (%) (500 ppm) Aphis,[2],100%
CCOC1CCC([N+](=O)[O-])=C2N(Cc3cnc(Cl)s3)CCCN21 (stereo not shown) [Compound 87],mortality (%) (500 ppm) Nilaparvata lugens,[1],100%
same,mortality (%) (500 ppm) Aphis,[2],100%
O=[N+]([O-])C1=C2N(Cc3cnc(Cl)s3)CCCN2C(OCCCl)CC1 (stereo not shown) [Compound 88],mortality (%) (500 ppm) Nilaparvata lugens,[1],34%
same,mortality (%) (500 ppm) Aphis,[2],23%
